Source: patent publication US9943599B2, “Therapeutic applications of calcium electroporation to effectively induce tumor necrosis” (Herlev Hospital, priority 2011, dated 2018)

Columns and labels:
basocellular carcinoma = test: Case study, calcium electroporation in a human patient; type: in vivo
Protocol: In a patient with multiple basocellular carcinomas, where all known treatment options had been tried and the patient was still in need of treatment, calcium electroporation was tried.
In this patient, lesions that were verified by biopsy to contain basocellular carcinoma were treated with different doses of calcium chloride or calcium glubionate with electroporation. Three lesions were treated, measuring 0.8 to 2 cm, by 0.1-0.2 mm deep.
After local anaesthesia (Mir et al), calcium was injected intratumorally using a thin needle and 1 ml syringe. Volumes of resp. 0.1, 0.7 and 3.7 times the calculated tumor volume (in this case calculated as diameter times perpendicular diameter times depth due to the shape of the tumors) was injected.
Immediately after injection (within 45 seconds), electroporation was performed using a square wave pulse generator (CLINIPORATOR®, IGEA, Modena, Italy) and needle electrodes with parallel arrays 0.4 cm apart. Eight pulses of a duration of 0.1 ms and 1 kV/cm (voltage to electrode distance ratio) were administered immediately after calcium injection.

[1] = system: HT29 (human colon cancer) tumors; test: Fraction of necrosis after calcium electroporation, HT29 tumors; type: in vivo, NMRI-Foxn1^nu mice
Protocol: LPB, a murine sarcoma cell line, B16, a murine malignant melanoma cell line, MDA-MB231, human a breast cancer cell line, HT29, a human colon cancer cell line, and SW780, a human bladder cancer cell line were used for the in vivo experiment. The cells were tested by rapid MAP27 panel (Taconic, Hudson N.Y.) before use without signs of infection. 2×10^5 cells (B16), 8×10^5 cells (LPB), 2.5×10^6 cells (MDA-MB231), and 5×10^6 cells (HT29 and SW780) in 100 μl PBS were injected subcutaneously in the flank of NMRI-Foxn1^nu mice (Harlan, Indianapolis, Ind.) that were 9-11 weeks old. Mice were randomised at a tumor volume above 85 mm^3 and tumors were treated with injection of isotonic calcium-chloride solution (168 mM CaCI2) and electroporation (8 pulses of 1.0 kv/cm for 100 μs and a frequency of 1 Hz) using a 6 mm plate electrode and a square wave electroporator (CLINIPORATOR®, IGEA, Modena, Italy). Tumor volume was calculated as ab^2n/6, where a is the largest diameter and b is the largest diameter perpendicular to a. The injected volume was half of the tumor volume. […] The fraction of necrosis within the tumor was estimated from HE-sections by stereological point counting using a light microscope, evaluated by a pathologist, blinded with respect to treatment status.
The difference in fraction of necrosis at different time after treatment was assessed using student's t-test.

DC-3F cells = test: Calcium electroporation with two calcium sources, MTT assay; type: cell-based, Chinese hamster; settings: 1 mM, 8 pulses, 0-1.6 kV/cm; MTT 1 day after treatment
Protocol: DC-3F cells were electroporated as described in example 1 with 1 mM calcium chloride (prepared by SAD, Denmark) or 1 mM calcium glubionate (Sandoz, Holzkirchen, Germany). The calcium concentration was chosen based on the experiment described in example 1 where 1 mM calcium is the lowest concentration inducing high cell death. The cells were electroporated with 8 pulses of […] at 1 Hz and increasing electric field (0-1.6 kV/cm). After 20 min at 37° C. and 5% CO2 cells were diluted in RPMI 1640 culture medium with 10% fetal calf serum and penicillin-streptomycin and seeded in 96-well plates at a concentration of 3.1×10^4 cells/100 μl.

[2] = system: MDA-MB231 (human breast cancer) tumors; test: Fraction of tumor necrosis at different calcium concentrations and injection volumes; type: in vivo, NMRI-Foxn1nu mice; settings: electroporation, 7 days
Protocol: MDA-MB231, a human breast cancer cell line was used for the in vivo experiments. The cells were tested by rapid MAP27 panel (Taconic, Hudson N.Y.) before use without signs of infection. Cells were maintained in vitro as described in Example 1. 2.5×10^6 cells/100 μl PBS were injected subcutaneously in the flank of NMRI-Foxn1nu mice (Harlan, Indianapolis, Ind.). Tumor pieces are transplanted twice from donor mice to the flank of nude mice that were 13-19 weeks old. HYPNORM™-DORMICUM™ (fentanyl/fluanisone/midazolam; VetaPharma, Leeds, U K and Roche, Basel, Switzerland) was used for anesthesia complemented with RIMADYL® (Carprofen) (Pfizer ApS, Ballerup, Denmark) as well as lidocaine (Region Hovedstadens Apotek, Herlev, Denmark) in the incision. Mice were randomised at a tumor volume above 85 mm3 and tumors were treated with 1) injection of calcium-chloride solution and electroporation (8 pulses of 1.0 kV/cm for 100 μs and a frequency of 1 Hz) using a 6 mm plate electrode and a square wave electroporator (CLINIPORATOR®, IGEA, Modena, Italy), 2) calcium-free physiological saline injection and electroporation (same parameters as above), 3) injection of calcium-chloride, 4) calcium-free physiological saline injection, or 5) untreated but with needle inserted in the tumor without injection and with electrodes put on the tumor without pulses applied. […] Tumor volume was calculated as ab2n/6, where a is the largest diameter and b is the largest diameter perpendicular to a. The solutions were injected through the side of the firm tumor and the needle was moved around inside the tumor to secure injection all over the tumor. Tumors were removed 7 days after treatment, fixated in formalin (10% neutrally buffered) and paraffin embedded. Subsequently, tissue sections with a thickness of 3 μm were HE-stained according to the routine procedure of the department. The fraction of necrosis within the tumor was estimated from HE-sections using a light microscope, evaluated by a pathologist, blinded with respect to treatment status.

## [Ca+2].[Cl-].[Cl-] [calcium chloride]
Basocellular carcinoma; highest volume (3.7 times tumor volume), with electroporation
  normal skin reaction (clinical observation): necrosis of normal skin
Basocellular carcinoma; injected volume 0.1 of tumor volume, with electroporation
  tumor response (biopsy): did not lead to changes
Basocellular carcinoma; injected volume 0.7 of tumor volume, electroporation 8 pulses 0.1 ms 1 kV/cm
  tumor response (biopsy): efficient tumor cell kill
[1]; 168 mM CaCl2, half tumor volume, electroporation, first days after treatment
  fraction of necrosis in tumors, course: progressive necrosis
[1]; 6 days after the treatment
  tumor re-growth: re-growth
DC-3F cells
  effect of calcium electroporation on cell viability, calcium chloride versus calcium glubionate: no difference
[2]; 100 mM to 500 mM calcium, constant injection volume 50% of tumor volume
  fraction of necrosis in tumors: higher than the fraction of necrosis in untreated tumors
[2]; 168 mM calcium
  injection volume with highest fraction of necrosis: 40 % of the tumor volume
[2]; injection volumes 20% to 80% of tumor volume, constant 168 mM calcium
  fraction of necrosis in tumors: higher than the fraction of necrosis in untreated tumors
